Assay results from US9796990B2 (priority 2011, dated 2017).
In brackets after ≈: the same amount, converted by molar mass. Like-named read-outs stand apart in the source and are kept apart here.

Assays:
Ceriodaphnia dubia = test: whole plant or invertebrate; conditions: read-out: EC 50, effective concentration for 50% survival
[1] = system: Bluegill (Lepomis macrochirus); conditions: in vivo; cited from earlier work

| Structure (SMILES) | EC50 (Ceriodaphnia dubia; 24 h) [ng/mL] | EC50 (Ceriodaphnia dubia; 48 h) [ng/mL] | toxicity compared with the parent compound chlorpyriphos [1] |
| --- | --- | --- | --- |
| CCOP(=S)(OCC)Oc1cc(C)nc(C(C)C)n1 [Untreated diazinon, diazinon] | 0.389 (≈ 1.28 nM) | 0.195 (≈ 0.641 nM) |  |
| CCOP(O)(=S)OCC [diethyl thiophosphoric acid] |  |  | considerably less toxic than the parent compound |
